The target of experiment [1] is phosphoribosyl pyrophosphate amidotransferase (PPAT) (Homo sapiens, UniProt Q06203). The experiment in a line: GDH-coupled NADH fluorescence assay of purified PPAT. It counts as biochemical.
Experiment [2] concerns the target Nudix hydrolase 5 (NUDT5) (Homo sapiens, UniProt Q9UKK9). The experiment in a line: PROTAC degradation of endogenous NUDT5 in cells, western blot, […] h. In kind it is cell-based. Background: In western blotting, separated proteins are transferred to a membrane and probed.

The results in this text go back to article PMC7618541 (Science (New York, N.Y.), 2025).

Each structure is given as a SMILES string.

Sequence of phosphoribosyl pyrophosphate amidotransferase (PPAT) (Q06203 12-517): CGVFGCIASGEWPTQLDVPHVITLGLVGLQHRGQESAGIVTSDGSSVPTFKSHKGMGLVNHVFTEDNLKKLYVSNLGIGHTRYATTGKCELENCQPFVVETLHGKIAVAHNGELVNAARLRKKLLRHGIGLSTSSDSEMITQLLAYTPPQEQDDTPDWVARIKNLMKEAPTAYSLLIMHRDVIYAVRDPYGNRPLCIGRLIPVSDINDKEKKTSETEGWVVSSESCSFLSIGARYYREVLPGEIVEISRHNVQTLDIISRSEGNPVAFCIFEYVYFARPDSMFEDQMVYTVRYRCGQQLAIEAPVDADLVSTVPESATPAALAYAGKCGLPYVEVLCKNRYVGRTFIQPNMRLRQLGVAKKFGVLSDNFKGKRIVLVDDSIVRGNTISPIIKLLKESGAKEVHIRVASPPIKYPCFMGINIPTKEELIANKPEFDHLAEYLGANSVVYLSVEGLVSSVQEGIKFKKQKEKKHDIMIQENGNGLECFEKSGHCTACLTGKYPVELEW

Regarding `NC(=O)CC[C@H](N)C(=O)O` [glutamine], the “GDH-coupled NADH fluorescence assay of purified PPAT” value in experiment [1] is “the first half reaction of PPAT reaction was assayed by monitoring the production of glutamate from glutamine”.

On to `Cn1c(=O)c2c(nc(N3CCN(C(=O)N4CCC(CN5CCN(c6ccc7c(c6)C(=O)N(C6CCC(=O)NC6=O)C7=O)CC5)CC4)CC3)n2Cc2nnc(-c3ccc(Cl)c(Cl)c3)o2)n(C)c1=O` (centres unmarked) [dNUDT5], for which the “PROTAC degradation of endogenous NUDT5 in cells, western blot, 20 h” value in experiment [2] is given as 100 nM.
